Results published in patent publication US7910751B2, “Heterocyclidene acetamide derivative” (Mochida Pharmaceutical Co., Ltd., priority 2005, dated 2011).

Target: T1, human TRPV1 (Homo sapiens, UniProt Q8NER1)
T1 construct: expressed in transfected cells; host or cells: CHO-K1
Experiment: Measurement of capsaicin-induced Ca influx in human TRPV1 transformed CHO cell line using FDSS-6000
Assay type: cell-based
Settings: concentration at which the capsaicin concentration-reaction curve is shifted two times to the right, human TRPV1 transformed CHO cells

T1 sequence (Q8NER1 whole entry): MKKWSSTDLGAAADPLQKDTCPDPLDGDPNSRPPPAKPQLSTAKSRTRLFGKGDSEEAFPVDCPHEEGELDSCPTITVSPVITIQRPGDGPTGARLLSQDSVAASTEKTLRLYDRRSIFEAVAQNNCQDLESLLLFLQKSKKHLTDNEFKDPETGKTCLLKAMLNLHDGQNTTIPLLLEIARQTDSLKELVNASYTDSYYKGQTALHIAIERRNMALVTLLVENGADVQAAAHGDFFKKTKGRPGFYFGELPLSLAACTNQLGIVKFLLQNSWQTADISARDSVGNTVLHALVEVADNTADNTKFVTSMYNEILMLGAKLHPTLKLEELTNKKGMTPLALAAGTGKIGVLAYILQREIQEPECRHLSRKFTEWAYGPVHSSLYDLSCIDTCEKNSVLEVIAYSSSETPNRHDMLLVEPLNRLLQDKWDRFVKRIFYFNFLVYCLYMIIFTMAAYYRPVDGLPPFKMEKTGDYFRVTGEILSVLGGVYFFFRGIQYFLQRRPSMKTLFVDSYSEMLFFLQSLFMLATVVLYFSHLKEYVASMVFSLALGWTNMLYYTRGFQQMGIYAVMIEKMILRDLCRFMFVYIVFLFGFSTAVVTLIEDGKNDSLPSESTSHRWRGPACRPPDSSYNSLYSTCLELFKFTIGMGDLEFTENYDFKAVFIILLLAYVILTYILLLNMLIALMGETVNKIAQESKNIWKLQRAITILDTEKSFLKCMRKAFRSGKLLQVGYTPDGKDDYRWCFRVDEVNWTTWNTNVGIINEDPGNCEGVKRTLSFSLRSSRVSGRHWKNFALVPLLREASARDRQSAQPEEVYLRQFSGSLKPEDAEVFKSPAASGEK

SMILES	A2 VALUE
O=C(/C=C1\CCN(C(=O)C2CCC2)c2cc(C(F)(F)F)ccc21)Nc1cccc2c1CC(O)CC2 (centres unmarked) [Example 84, (E)-2-(1-cyclobutanecarbonyl-7-trifluoromethyl-2,3-dihydroquinolin-4(1H)-ylidene)-N-(7-hydroxy-5,6,7,8-tetrahydronaphthalen-1-yl)acetamide]	A (compounds of the present invention having an A2 value of less than 100 nM are represented by A)
O=C(/C=C1\CCN(C(=O)C2CCC(F)(F)CC2)c2cc(C(F)(F)F)ccc21)Nc1cccc2c1CC(O)CC2 (centres unmarked) [Example 85, (E)-2-(1-(4,4-difluorocyclohexanecarbonyl)-7-trifluoromethyl-2,3-dihydroquinolin-4(1H)-ylidene)-N-(7-hydroxy-5,6,7,8-tetrahydronaphthalen-1-yl)acetamide]	A (compounds of the present invention having an A2 value of less than 100 nM are represented by A)
CC(C)CCC(=O)N1CC/C(=C\C(=O)Nc2cccc3c2CC(O)CC3)c2ccc(C(F)(F)F)cc21 (centres unmarked) [Example 86, (E)-2-(1-(4-methylpentanoyl)-7-trifluoromethyl-2,3-dihydroquinolin-4(1H)-ylidene)-N-(7-hydroxy-5,6,7,8-tetrahydronaphthalen-1-yl)acetamide]	A (compounds of the present invention having an A2 value of less than 100 nM are represented by A)
CC(C)CC(=O)N1CC/C(=C\C(=O)Nc2cccc3c2CC(O)CC3)c2ccc(C(F)(F)F)cc21 (centres unmarked) [Example 87, (E)-2-(1-(3-methylbutanoyl)-7-trifluoromethyl-2,3-dihydroquinolin-4(1H)-ylidene)-N-(7-hydroxy-5,6,7,8-tetrahydronaphthalen-1-yl)acetamide]	A (compounds of the present invention having an A2 value of less than 100 nM are represented by A)
O=C(/C=C1\CCN(C(=O)C2CCC(F)C2)c2cc(C(F)(F)F)ccc21)Nc1cccc2c1CC(O)CC2 (centres unmarked) [Example 88, (E)-2-(1-(3-fluorocyclopentanecarbonyl)-7-trifluoromethyl-2,3-dihydroquinolin-4(1H)-ylidene)-N-(7-hydroxy-5,6,7,8-tetrahydronaphthalen-1-yl)acetamide]	A (compounds of the present invention having an A2 value of less than 100 nM are represented by A)
CC1(C(=O)N2CC/C(=C\C(=O)Nc3cccc4c3CC(O)CC4)c3ccc(C(F)(F)F)cc32)CC1 (centres unmarked) [Example 89, (E)-2-(1-(1-methylcyclopropanecarbonyl)-7-trifluoromethyl-2,3-dihydroquinolin-4(1H)-ylidene)-N-(7-hydroxy-5,6,7,8-tetrahydronaphthalen-1-yl)acetamide]	A (compounds of the present invention having an A2 value of less than 100 nM are represented by A)
CC1(C(=O)N2CC/C(=C\C(=O)Nc3cccc4c3CC(O)CC4)c3ccc(C(F)(F)F)cc32)CCC1 (centres unmarked) [Example 90, (E)-2-(1-(1-methylcyclobutanecarbonyl)-7-trifluoromethyl-2,3-dihydroquinolin-4(1H)-ylidene)-N-(7-hydroxy-5,6,7,8-tetrahydronaphthalen-1-yl)acetamide]	A (compounds of the present invention having an A2 value of less than 100 nM are represented by A)
O=C(/C=C1\CCN(C(=O)CCC(F)(F)F)c2cc(C(F)(F)F)ccc21)Nc1cccc2c1CC(O)CC2 (centres unmarked) [Example 91, (E)-2-(1-(4,4,4-trifluorobutanoyl)-7-trifluoromethyl-2,3-dihydroquinolin-4(1H)-ylidene)-N-(7-hydroxy-5,6,7,8-tetrahydronaphthalen-1-yl)acetamide]	A (compounds of the present invention having an A2 value of less than 100 nM are represented by A)
O=C(/C=C1\CCN(C(=O)CC(F)(F)F)c2cc(C(F)(F)F)ccc21)Nc1cccc2c1CC(O)CC2 (centres unmarked) [Example 92, (E)-2-(1-(3,3,3-trifluoropropanoyl)-7-trifluoromethyl-2,3-dihydroquinolin-4(1H)-ylidene)-N-(7-hydroxy-5,6,7,8-tetrahydronaphthalen-1-yl)acetamide]	A (compounds of the present invention having an A2 value of less than 100 nM are represented by A)
O=C(/C=C1\CCN(C(=O)CCCC(F)(F)F)c2cc(C(F)(F)F)ccc21)Nc1cccc2c1CC(O)CC2 (centres unmarked) [Example 93, (E)-2-(1-(5,5,5-trifluoropentanoyl)-7-trifluoromethyl-2,3-dihydroquinolin-4(1H)-ylidene)-N-(7-hydroxy-5,6,7,8-tetrahydronaphthalen-1-yl)acetamide]	A (compounds of the present invention having an A2 value of less than 100 nM are represented by A)
O=C(/C=C1\CCN(C(=O)Cc2ccccc2)c2cc(C(F)(F)F)ccc21)Nc1cccc2c1CC(O)CC2 (centres unmarked) [Example 94, (E)-2-(1-phenylacetyl-7-trifluoromethyl-2,3-dihydroquinolin-4(1H)-ylidene)-N-(7-hydroxy-5,6,7,8-tetrahydronaphthalen-1-yl)acetamide]	A (compounds of the present invention having an A2 value of less than 100 nM are represented by A)
CCC(F)(F)C(=O)N1CC/C(=C\C(=O)Nc2cccc3c2CC(O)CC3)c2ccc(C(F)(F)F)cc21 (centres unmarked) [Example 95, (E)-2-(1-(2,2-difluorobutanoyl)-7-trifluoromethyl-2,3-dihydroquinolin-4(1H)-ylidene)-N-(7-hydroxy-5,6,7,8-tetrahydronaphthalen-1-yl)acetamide]	A (compounds of the present invention having an A2 value of less than 100 nM are represented by A)
CC(C)(F)C(=O)N1CC/C(=C\C(=O)Nc2cccc3c2CC(O)CC3)c2ccc(C(F)(F)F)cc21 (centres unmarked) [Example 96, (E)-2-(1-(2-fluoro-2-methylpropanoyl)-7-trifluoromethyl-2,3-dihydroquinolin-4(1H)-ylidene)-N-(7-hydroxy-5,6,7,8-tetrahydronaphthalen-1-yl)acetamide]	A (compounds of the present invention having an A2 value of less than 100 nM are represented by A)
O=C(/C=C1\CCN(C2CCCCC2)c2cc(C(F)(F)F)ccc21)Nc1ccc2cccnc2c1 [Example 97, (E)-2-(7-trifluoromethyl-2,3-dihydro-1-cyclohexylquinolin-4(1H)-ylidene)-N-(quinolin-7-yl)acetamide]	A (compounds of the present invention having an A2 value of less than 100 nM are represented by A)
Cc1ccc(S(=O)(=O)N2CC/C(=C\C(=O)Nc3ccc4cccnc4c3)c3ccc(C(F)(F)F)cc32)cc1 [Example 98, (E)-2-(7-trifluoromethyl-2,3-dihydro-1-(4-methylbenzenesulfonyl)quinolin-4(1H)-ylidene)-N-(quinolin-7-yl)acetamide]	A (compounds of the present invention having an A2 value of less than 100 nM are represented by A)
O=C(/C=C1\CCN(C(=O)C2CC2)c2cc(C(F)(F)F)ccc21)Nc1ccc2cccnc2c1 [Example 99, (E)-2-(7-trifluoromethyl-2,3-dihydro-1-cyclopropanecarbonylquinolin-4(1H)-ylidene)-N-(quinolin-7-yl)acetamide]	A (compounds of the present invention having an A2 value of less than 100 nM are represented by A)
COCCC(=O)N1CC/C(=C\C(=O)Nc2ccc3cccnc3c2)c2ccc(C(F)(F)F)cc21 [Example 100, (E)-2-(7-trifluoromethyl-2,3-dihydro-1-(3-methoxypropanoyl)quinolin-4(1H)-ylidene)-N-(quinolin-7-yl)acetamide]	A (compounds of the present invention having an A2 value of less than 100 nM are represented by A)
